Experimental data: patent publication US5925369A, “Bis alkanoyl esters of carnitine having bactericidal, fungicidal and antiprotozoal activity” (priority 1996, dated 1999)

What was measured:
[1] = system: T. mentagrophytes IDI D1049; assay: Antifungal activity in experimental Tinea pedis in the guinea-pig paw; type: in vivo, Hartley guinea-pig; details: for A (clinical sign score) / D (clinical sign score) / E (clinical sign score): scale 0-3
From the text: Twelve male Hartley guinea-pig (C. RIVER), weighing 350-400 gr, have been utilized (3 animals per experimental group).
One clinical isolate (Tricophyton mentagrophytes IDI D 1049, from Immacolata Dermatological Institute of Rome) was utilized.
Microaleuriospores were first harvested by scraping from a 7-day fungal culture grown in Potato dextrose agar, and then resuspended in Sabouraud broth with 0.5% Tween 80.
After washing, the spores were standardized in sterile saline to yield a final concentration of 1.0×10^8 spores/ml.
Each group included 3 animals, and only the left hind paw was inoculated. For the 2 control groups, 3 animals in total were used, as both hind paws of each animal were inoculated.
Filter paper discs (12-mm diameter and 0.3-mm thickness) were covered with aluminum foil in the lower part to prevent the inoculum spreading. This filter was then sticked to a 1×3-cm piece of biadesive plaster, which adhered to a gauze wrapped around the paw.
The filter paper disc was then wetted with 100 μl of the infective suspension, and subsequently fixed to the guinea-pig paw.
The animal paw was tied up with bandage and plaster, and then left in these conditions for 7 days.
Seven days after infection, the infected areas were uncovered and the type of lesion was graded according to an arbitrary scale, as follows:
These "clinical" signs were examined again on days +14, +21, and +31 (day of sacrifice of animals). Three days following the first observation of the type of lesion (day +10), treatments with the differrent formulations were started, and they went on for 20 days (once a day). Two days following the last treatment (day +31), animals were sacrificed and plantar areas of the paws were dissected into 10 parts for each paw.
These sections were plated onto Mycobiotic agar supplemented with Penicillin G and Streptomicin (100 mcg/ml). Volumes of 50 μl of both antibiotics were then added to the plantar sections to prevent any bacterial growth that might interfere with the growth of T. mentagrophytes in the samples under examination.
The data obtained were expressed as the number of microbiologically sterile cutaneous sections over the total examined sections.

Trichomonas vaginalis = assay: MIC on protozoa (Trichomonas vaginalis); type: cell-based; details: Metronidazole resistant strains T. vaginalis SS-20 and SS-22 (25 and 50)
Experimental: Protozoal suspensions are prepared from 24-hour cultures grown at 37° C. and 5% CO2 in DIAMOND T.Y.M. broth supplemented with 10% heat-inactivated FCS.
The suspensions are adjusted, in the same medium, to a final concentration of 2.5×10^5 cells/ml in each well of a 96-well microtiter plate. Substance dilutions (0.3 log) are added to the suspensions in order to have a range of final concentrations from 0.19 to 100 mcg/ml. Microtiters are then incubated at 37° C. and 5% CO2 for 24 hours. MIC is referred to as the minimal concentration inhibiting either protozoa or flagella or undulating membrane motility (Cf. JULIANO C., MARTINOTTI M. G., […] P., In vitro effect of microtubule inhibitors on T. vaginalis, Microbiologia, 8:31-42, 1985. LOVGREN T. and SALMELA I., Invitro sensitivity of T. vaginalis and C. albicans to chemotherapeutic agents, Acta Path. Microbiol. Scand.. 86:155-158, 1978).

[2] = 1.5%, 20 days once a day, day +31

MIC of Metronidazole (Trichomonas vaginalis) [µg/mL] | MIC (Trichomonas vaginalis; Trichomonas vaginalis, 24 h, read-out: MIC of Metronidazole) [µg/mL] | SMILES | eradication of infection ([1]; 1.5% Miconazole) | A (clinical sign score) ([1]; 1.5%, 7th day) | D (clinical sign score) ([1]; 1.5%, 7th day) | E (clinical sign score) ([1]; 1.5%, 7th day) | A (clinical sign score) ([1]; 1.5%, 14th day) | D (clinical sign score) ([1]; 1.5%, 14th day) | E (clinical sign score) ([1]; 1.5%, 14th day) | A (clinical sign score) ([1]; 1.5%, 21st day) | D (clinical sign score) ([1]; 1.5%, 21st day) | E (clinical sign score) ([1]; 1.5%, 21st day) | A (clinical sign score) ([1]; 1.5%, 31st day) | D (clinical sign score) ([1]; 1.5%, 31st day) | E (clinical sign score) ([1]; 1.5%, 31st day) | sterile samples (%) [1, 2] [%] | sterile samples (n = 30), number over total [1, 2]
– | – | Clc1ccc(COC(Cn2ccnc2)c2ccc(Cl)cc2Cl)c(Cl)c1 (centres unmarked) [Miconazole, reference compound] | capable of eradicating infection from all treated samples | 0 | 0 | 0 | 0 | 0 | 0 | 0 | 0 | 0 | 0 | 0 | 0 | 100 | 30/30
50 | 25 | Cc1ncc([N+](=O)[O-])n1CCO [Metronidazole] | – | – | – | – | – | – | – | – | – | – | – | – | – | – | –
